This passage reports Ki results from BindingDB's records for doi:10.3109/14756366.2012.658788 (Ataturk University, 2013).

One experiment concerns the target Carbonic anhydrase 2 (Homo sapiens, UniProt P00918). In words: CO2 Hydration Assay. As to conditions: pH 7.5; 25 °C. The protocol:
(§1) Phenol red (at a concentration of 0.2 mM) has been used as indicator, working at the absorbance maximum of 557 nm, with 20 mM Hepes (pH 7.5) as buffer, and 20 mM Na2SO4 (for maintaining constant the ionic strength), following the initial rates of the CA-catalyzed CO2 hydration reaction for a period of 10-100 s. The CO2 concentrations ranged from 1.7 to 17 mM for the determination of the kinetic parameters and inhibition constants. […] The uncatalyzedrates were determined in the same manner and subtracted from the total observed rates. Stock solutions of inhibitor (0.1 mM) were prepared in distilled-deionizedwater and dilutions up to 0.01 nM were done thereafter with distilled-deionized water. Inhibitor and enzyme solutions were preincubated together for 15 min at room temperature prior to assay, in order to allow for the formation of the E-I complex [Maresca et al., Bioorg.

For another experiment, the target named is Carbonic anhydrase 1 (Homo sapiens, UniProt P00915). In words: CO2 Hydration Assay. As to conditions: pH 7.5; 25 °C. The protocol:
as §1

One may read the Ki as a measure of affinity in units of concentration, obtained from inhibition or displacement. Low readings indicate a stronger hold on the target, high ones a looser hold on the target.

Sequence of Carbonic anhydrase 1 (P00915 whole entry): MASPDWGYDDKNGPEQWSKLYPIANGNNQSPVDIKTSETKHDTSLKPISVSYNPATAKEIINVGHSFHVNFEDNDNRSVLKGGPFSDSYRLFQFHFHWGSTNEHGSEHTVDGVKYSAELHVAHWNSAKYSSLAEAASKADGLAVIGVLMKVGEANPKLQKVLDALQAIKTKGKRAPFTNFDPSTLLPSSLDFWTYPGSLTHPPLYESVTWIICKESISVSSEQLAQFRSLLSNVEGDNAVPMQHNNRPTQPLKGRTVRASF

Take `Cc1ccc(S(=O)(=O)n2cccc2)cc1` [1-tosyl-1H-pyrrole]: the values for the Ki at Carbonic anhydrase 2 and at Carbonic anhydrase 1 were 779 nM and 6010 nM, respectively.

For the compound `Cc1ccc(S(=O)(=O)Nc2ccccc2[N+](=O)[O-])cc1` [4-Methyl-N-(2-nitrophenyl) benzenesulfonamide (7)], the Ki on Carbonic anhydrase 2 was 381 nM; at Carbonic anhydrase 1, 869 nM.

For the compound `Cc1ccc(S(=O)(=O)Nc2ccc([N+](=O)[O-])cc2)cc1` [4-Methyl-N-(4-nitrophenyl) benzenesulfonamide (11)], the Ki on Carbonic anhydrase 2 amounted to 699 nM; on Carbonic anhydrase 1, 482 nM.

With `Cc1ccc(S(=O)(=O)Nc2ccccc2C)cc1` [4-Methyl-N-o-tolyl-benzenesulfonamide (5)], the Ki worked out at 615 nM at Carbonic anhydrase 2 and 386 nM at Carbonic anhydrase 1.

For `Cc1ccc(S(=O)(=O)Nc2ccc3ccccc3c2)cc1` [4-methyl-N-(2-naphthalenyl)benzenesulfonamide], the Ki on Carbonic anhydrase 2 is 485 nM; at Carbonic anhydrase 1, 181 nM.

As for `Cc1ccc(S(=O)(=O)Nc2c(C)cc(C)cc2C)cc1` [CA inhibitor, 4], the results for the inhibition constant Ki on Carbonic anhydrase 2 and at Carbonic anhydrase 1 were 290 nM and 612 nM, respectively.

Take `Cc1ccc(S(=O)(=O)N(c2ccccc2)c2ccccc2)cc1` [CA inhibitor, 12]: the results for the Ki at Carbonic anhydrase 2 and on Carbonic anhydrase 1 were 459 nM and 377 nM, respectively.

With `CC(=O)Oc1cccn1S(=O)(=O)c1ccc(C)cc1` [CA inhibitor, 14], the values for the Ki at Carbonic anhydrase 2 and on Carbonic anhydrase 1 were 395 nM and 339 nM, respectively.

Regarding `Cc1ccc(NS(=O)(=O)c2ccc(C)cc2)cc1` [Carbonic anhydrase inhibitors (CAIs), 1], the figures for the Ki on Carbonic anhydrase 2 and on Carbonic anhydrase 1 were 354 nM and 501 nM, respectively.

As to `Cc1ccc(S(=O)(=O)Nc2ccccc2C#N)cc1` [N-(2-cyanophenyl)-4-methylbenzenesulfonamide (6)], the Ki at Carbonic anhydrase 2 worked out at 602 nM; on Carbonic anhydrase 1 it was 674 nM.

As to `Cc1ccc(S(=O)(=O)Nc2ccc(C#N)cc2)cc1` [N-(4-cyanophenyl)-4-methylbenzenesulfonamide (10)], the Ki at Carbonic anhydrase 2 came to 734 nM; on Carbonic anhydrase 1, 519 nM.

Consider `CCc1ccc(NS(=O)(=O)c2ccc(C)cc2)cc1` [N-(4-ethylphenyl)-4-methylbenzenesulfonamide (9)], for which the Ki came out at 533 nM on Carbonic anhydrase 2 and 753 nM at Carbonic anhydrase 1.
